Source: ChEMBL document CHEMBL2074350, “Immunosuppressants FK506 and rapamycin function as reversal agents of the multidrug resistance phenotype” (Blood, 1992)

Biological target: ATP-dependent translocase ABCB1 (Homo sapiens, UniProt P08183)
Assay: TP_TRANSPORTER: increase in Daunomycin intracellular accumulation (Daunomycin: 10 uM, Rapamycin: 5 uM) in CEM/VBL 250 cells
Format: functional, cell-based
Conditions: cem/vbl 250, 5 µM

ATP-dependent translocase ABCB1, sequence (P08183 whole entry): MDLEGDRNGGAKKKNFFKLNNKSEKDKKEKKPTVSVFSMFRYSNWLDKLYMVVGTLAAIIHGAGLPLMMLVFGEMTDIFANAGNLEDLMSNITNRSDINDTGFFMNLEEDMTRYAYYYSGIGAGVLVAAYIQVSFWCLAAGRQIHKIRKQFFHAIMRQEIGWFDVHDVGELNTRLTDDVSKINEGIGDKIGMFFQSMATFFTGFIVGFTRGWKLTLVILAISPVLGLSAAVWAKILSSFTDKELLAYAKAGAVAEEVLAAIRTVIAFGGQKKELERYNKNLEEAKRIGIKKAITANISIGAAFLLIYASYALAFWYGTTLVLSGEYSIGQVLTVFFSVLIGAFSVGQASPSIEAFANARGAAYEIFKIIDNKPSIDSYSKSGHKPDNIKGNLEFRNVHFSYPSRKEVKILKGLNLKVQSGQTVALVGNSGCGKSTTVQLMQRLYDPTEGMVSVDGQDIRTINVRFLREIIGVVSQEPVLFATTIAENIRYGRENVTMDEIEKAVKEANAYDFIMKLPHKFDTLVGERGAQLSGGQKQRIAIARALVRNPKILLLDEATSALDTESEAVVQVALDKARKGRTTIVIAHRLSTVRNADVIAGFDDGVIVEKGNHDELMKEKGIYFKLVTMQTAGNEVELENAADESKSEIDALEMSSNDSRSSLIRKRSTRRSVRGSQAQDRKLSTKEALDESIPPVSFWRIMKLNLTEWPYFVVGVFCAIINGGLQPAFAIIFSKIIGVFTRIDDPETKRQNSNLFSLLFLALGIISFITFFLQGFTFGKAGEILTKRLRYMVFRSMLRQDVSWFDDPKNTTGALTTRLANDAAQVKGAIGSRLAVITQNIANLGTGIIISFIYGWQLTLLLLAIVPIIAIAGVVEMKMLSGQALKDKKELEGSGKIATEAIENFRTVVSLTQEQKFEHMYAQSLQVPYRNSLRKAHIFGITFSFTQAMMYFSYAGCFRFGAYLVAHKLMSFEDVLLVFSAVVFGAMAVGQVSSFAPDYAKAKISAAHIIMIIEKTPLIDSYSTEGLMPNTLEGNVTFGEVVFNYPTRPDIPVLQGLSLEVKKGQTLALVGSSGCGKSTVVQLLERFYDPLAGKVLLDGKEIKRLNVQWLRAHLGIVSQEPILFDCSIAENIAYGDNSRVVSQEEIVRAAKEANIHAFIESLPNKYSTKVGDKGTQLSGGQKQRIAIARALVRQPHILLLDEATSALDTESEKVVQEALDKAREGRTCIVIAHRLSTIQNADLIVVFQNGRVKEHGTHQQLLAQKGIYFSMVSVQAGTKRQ

`CO[C@H]1C[C@@H]2CC[C@@H](C)[C@@](O)(O2)C(=O)C(=O)N2CCCC[C@H]2C(=O)O[C@H]([C@H](C)C[C@@H]2CC[C@@H](O)[C@H](OC)C2)CC(=O)[C@H](C)/C=C(\C)[C@@H](O)[C@@H](OC)C(=O)[C@H](C)C[C@H](C)/C=C/C=C/C=C/1C` [SIROLIMUS] was tested, and the Activity was “inhibitor [(at a rough estimate) 7-fold]”.
